# Results taken from patent US10822376B2, “Biologically active peptides” (Baxalta Incorporated, priority 2008, dated 2020).
# Where a SMILES comes first, the peptide text is derived from it. Where no end group is shown, it is not given here. [ ]: non-standard residue; d: D form.
# Experiments:
# [1] = system: FVIII-inhibited human normal plasma; assay: Defined Fibrin Deposition Assay (clotting time); type: biochemical; conditions: for Activity in the Defined Fibrin Deposition Assay: summary
# Description: Another suitable assay to determine procoagulant activity, and particularly FVIII equivalent activity or FVIII inhibitor bypassing activity, is the Defined Fibrin Deposition Assay as described below. […] This assay is particularly useful for determining coagulation FVIII activity because it is conducted in the presence of FVIII-depleted or inhibited plasma.
# The Defined Fibrin Deposition Assay is performed as follows. FVIII activity of human citrated plasma (Baxter AG) is first inhibited by incubating (2 hours, 37° C.) 100 μl of human normal plasma with 25 μl heat inactivated anti-human FVIII plasma (300 BU/ml, 6 hours incubated at 56° C.) raised in goat. For each sample to be tested, 125 μl of this FVIII-inhibited human normal plasma is transferred to a pre-warmed cuvette and a 75 μl dilution of a test compound or FEIBA reference standard (Baxter AG) is added. The dilutions of test compound or FEIBA reference standard contain 50 mM imidazole, 100 mM NaCl and 10 mg/ml human serum albumin (Sigma) pH 7.4. As a trigger and for providing procoagulant surfaces 100 μl of a mix of human factor XIa (3.13 nM, Enzyme Research Laboratories) and phospholipid (PL) vesicles (Phosphatidylcholine/Phosphatidylserine 60%/40%, 30 μM; Avanti Polar Lipids) in 50 mM Imidazole, 100 mM NaCl, 10 mg/ml human serum albumin (Sigma) pH 7.4 is included. After incubating for three minutes at 37° C. the coagulation reaction is started by adding 100 μl of 25 mM CaCl2. Clot formation is monitored by a coagulometer (KC10A, Amelung, Germany). In brief, each cuvette rotates slowly above the magnetic detection device and contains a small magnetic metallic ball. Whilst the plasma components remain in solution, the ball sits at the bottom of the cuvette. Over time, a clot begins to form, such that the ball starts to rotate with the developing clot in the rotating cuvette. The “clotting time” is recorded and is defined as the time from addition of the CaCl2) to the time that the developing clot begins to rotate the metallic ball. A standard curve for FEIBA reference standard dilutions is calculated by linear regression of logarithmic FEIBA concentrations (x-axis) against the clotting time (y-axis). Based on the clotting time of each compound concentration FEIBA equivalent activities are calculated according to this standard curve.
# Thus, where a concentration of 100 μM is given, the actual concentration in the final assay volume in 25 μM.
# Various peptides were tested for the ability to stimulate fibrin deposition in the Defined Fibrin Deposition Assay as described in the specific description.
# [2] = molecular target: T1, HERG channel (Homo sapiens, UniProt Q12809); type: cell-based
# T1 sequence (Q12809 whole entry): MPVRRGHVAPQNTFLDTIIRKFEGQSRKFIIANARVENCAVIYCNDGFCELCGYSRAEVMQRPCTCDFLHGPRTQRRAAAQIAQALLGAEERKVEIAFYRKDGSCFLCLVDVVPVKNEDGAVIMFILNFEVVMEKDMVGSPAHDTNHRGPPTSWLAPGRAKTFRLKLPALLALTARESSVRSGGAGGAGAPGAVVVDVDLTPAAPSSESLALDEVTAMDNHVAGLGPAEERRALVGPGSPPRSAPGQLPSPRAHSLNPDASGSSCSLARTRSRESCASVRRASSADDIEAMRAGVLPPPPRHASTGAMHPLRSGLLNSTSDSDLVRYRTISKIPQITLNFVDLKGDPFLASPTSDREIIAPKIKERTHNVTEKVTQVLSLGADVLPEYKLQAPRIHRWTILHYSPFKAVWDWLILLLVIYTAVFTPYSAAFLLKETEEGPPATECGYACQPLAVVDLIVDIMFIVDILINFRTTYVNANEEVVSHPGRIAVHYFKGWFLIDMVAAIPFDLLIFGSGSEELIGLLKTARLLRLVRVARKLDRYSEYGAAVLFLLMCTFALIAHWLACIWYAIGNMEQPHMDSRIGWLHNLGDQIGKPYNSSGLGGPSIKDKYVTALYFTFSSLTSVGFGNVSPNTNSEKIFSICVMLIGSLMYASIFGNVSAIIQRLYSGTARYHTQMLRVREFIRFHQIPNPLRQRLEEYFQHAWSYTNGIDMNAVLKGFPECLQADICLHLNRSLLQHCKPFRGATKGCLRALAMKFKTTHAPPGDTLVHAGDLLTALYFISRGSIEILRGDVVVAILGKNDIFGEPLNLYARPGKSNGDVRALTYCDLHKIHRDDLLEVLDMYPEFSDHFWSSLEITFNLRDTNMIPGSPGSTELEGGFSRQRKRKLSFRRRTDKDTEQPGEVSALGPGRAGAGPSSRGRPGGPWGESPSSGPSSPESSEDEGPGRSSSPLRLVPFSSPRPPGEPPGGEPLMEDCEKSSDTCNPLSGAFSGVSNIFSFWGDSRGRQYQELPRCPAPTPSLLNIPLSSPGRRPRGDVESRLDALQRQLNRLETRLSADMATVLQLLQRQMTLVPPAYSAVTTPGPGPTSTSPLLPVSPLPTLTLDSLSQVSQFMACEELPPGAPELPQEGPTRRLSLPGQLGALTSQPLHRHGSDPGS
# Description: It was tested at 10 μM and the data were compared with historical values determined at Cerep.
# [3] = molecular target: T1, HERG channel; assay: HERG inhibition, patch clamp assay; conditions: patch clamp assay
# Description: QT prolongation is assessed by HERG inhibition measured by patch-clamp techniques or Rb^+ efflux.
# For rigorous characterization of HERG inhibition the patch clamp assay is applied (Cerep, France, Catalog ref. 900-36). […] The test compounds (10 mM stock solutions) were dissolved in dimethylsulfoxide (DMSO). The solutions at 1 μM contained 0.01% DMSO.
# [4] = in vitro; conditions: human, plasma
# Description: Half-life of compounds in human or mouse plasma, or percentage of compound remaining after an incubation in human or mouse plasma, is determined as follows. In the experimental procedure, test compound concentrations are 5 μM, prepared from test compound stock solutions of 10 mM in DMSO. Propantheline is used as a standard. […] All of the samples are incubated in a water bath at 37° C. […] After a chosen duration of incubation (generally at t=60 min) each sample is mixed with a further 500 μl acetonitrile. The samples are mixed on a vortex mixer for 30 s and placed on ice for 10 min and collected for centrifugation. Samples are centrifuged at 20 000 g for 10 min at 4° C. 500 μl supernatant is transferred into a new 1.5 ml Eppendorf tube and an equal volume of acetonitrile is added. The sample is mixed again for 30 s using a vortex mixer. After a second centrifugation step (20 000 g, 10 min, 4° C.) 250 μl of the supernatant is transferred into HPLC glass vials for HPLC-MS analysis. Conditions for performing HPLC are as follows: Injection-volume is set to 20 μl. Temperature is set to 25° C. A linear gradient from 95:5 to 5:95 water:acetonitrile both containing 0:05% trifluoroacetic acid (TFA) (v/v) is applied at a flow rate of 0.3 ml/min for 10 min. The PDA-detector is scanning from 210-400 nm.
# [5] = in vivo; conditions: C57BL/6, mouse
# Description: Pharmacokinetics of compounds were tested in C57BI/6 mice or Wistar rats at 1-30 mg/kg. Compound concentrations in the blood stream were monitored at appropriate intervals using LC-MS.
# Pharmacokinetic studies were performed to monitor compound concentrations in plasma following i.v., i.p. or s.c. administration. Studies were conducted in C57BI/6 mice weighing approximately 20 g.
# Peptide concentrations in the plasma were analysed by HPLC-MS on a Surveyor HPLC combined with mass spectrometer LCQ classic or Advantage (all Thermo Electron, US) equipped with an ESI-source. All HPLC experiments were carried out on a Phenomenex C-18 Luna column (50 mm×2.0 mm, 5 μl injection volume) using a linear gradient: eluent A 0.05% trifluoracetic acid (TFA) in water; eluent B 0.05% TFA in acetonitrile; flow rate 0.3 mL/min in 10 min. […] The internal standard is prepared as a 0.1 μg/ml solution in 100% methanol. 50 μl plasma and 50 μl internal standard are mixed. 100 μl methanol is added and mixed thoroughly. After 30 min incubation on ice the vial is centrifuged for 15 min at 4° C. […] 150 μl of the supernatant are transferred into the HPLC vial
# [6] = in vitro; type: in vitro ADME; conditions: mouse, microsomes, pH 7.4
# Description: Tests were used to determine the stability of compounds in microsomal preparations of human or animal origin. The microsomal stability is measured either in assays provided by Cerep (France, Catalog ref. 900-8h) or by the protocol described below. […] All wells must be carefully mixed to ensure a homogenous suspension before the next steps. 75 μl samples (duplicates) at t=0 minutes are taken for each compound. The plate is sealed and returned to the water bath/thermomixer for 30 minutes. The test compounds/standards are extracted by addition of 200 μl methanol, also including an internal standard. […] The samples are centrifuged at 1300 g for 10 min at 4° C. 200 μl of the supernatant is transferred into a 96-well plate with 10 μl DMSO per well. Compound stability is measured by HPLC-MS analysis (triplicates). The same procedure is repeated after 30 min. […] The signal to noise ratio for all peaks must be 5:1 or better. The ratio AUCanalyte: AUCstandard at the different timepoints must be used. The calculated stability for the control compound must fall in a certain range to validate the assay.
Compound,FEIBA EU (from clotting time) ([1]; compound 12.5 μM) [mU/ml],FEIBA EU (from clotting time) ([1]; compound 25 μM) [mU/ml],Activity in the Defined Fibrin Deposition Assay [1],HERG inhibition Rb+ efflux (% Inhibition at 10 μM) [2] [%],Classification as HERG-channel blocker (potency ranking of Roche et al.) [3],"remaining at 0.5 h, 5 μM [4] [%]",level at 5 min ([5]; ip) [ng/mL],level at 20 min ([5]; ip) [ng/mL],level at 40 min ([5]; ip) [ng/mL],level at 1 h ([5]; ip) [ng/mL],level at 80 min ([5]; ip) [ng/mL],level at 100 min ([5]; ip) [ng/mL],level at 5 min ([5]; iv) [ng/mL],level at 10 min ([5]; iv) [ng/mL],level at 0.25 h ([5]; iv) [ng/mL],level at 20 min ([5]; iv) [ng/mL],level at 25 min ([5]; iv) [ng/mL],level at 0.5 h ([5]; iv) [ng/mL],"remaining at 0.5 h, 1 μM [6] [%]",other results
"CC[C@@H](C)[C@@H](NC(=O)[C@@H](CS)NC(C)=O)C(=O)N[C@H](CCSC)C(=O)N[C@H](Cc1ccccc1)C(=O)N[C@H](Cc1c[nH]c2ccccc12)C(=O)N[C@H](Cc1ccc(O)cc1)C(=O)N[C@H](CC(=O)O)C(=O)N[C@H](CCC(=O)O)C(=O)N[C@H](Cc1ccc(O)cc1)C(=O)N[C@H](CCC(=O)O)C(N)=O [Peptide B03, Ac-cimfwydeye-NH2] (Ac-[dC][dI][dM][dF][dW][dY][dD][dE][dY][dE]-NH2)",291,325,possess activity,−2.1,high potency,–,–,–,–,–,–,–,–,–,–,–,–,–,–,–
Ac-WDLYFEIVW-NH2 [Peptide A05],–,193,possess activity,–,low-potency,93,119,165,185,130,49,50,2600,2040,173,101,23,–,–,FEIBA EU (from clotting time) ([1]; compound 10 μM): 119 mU/ml; FEIBA EU (from clotting time) ([1]; compound 50 μM): 219 mU/ml
Ac-WDLYFEIVWE [Peptide A06],232,168,possess activity,−6.4,–,98,6440,7770,547,5800,4060,3020,50000,32600,21000,15600,11300,7790,49,–
H-ERMEFDVWDLYFEIVW-NH2 [Peptide A09],–,–,–,−1.6,–,67,34,67,60,129,74,68,350,184,109,119,64,80,23,–
Ac-PMKFDVWDLYFEIVW-NH2 [Peptide A02],–,–,–,−3.3,–,84,273,315,289,612,99,176,11600,7260,3180,2740,1440,1310,45,–
